Reference: patent US20140121373A1, “PROCESS FOR PREPARING STABLE POLYMORPHIC FORM OF ERLOTINIB HYDROCHLORIDE” (CADILA HEALTHCARE LIMITED, priority 2011, published 2014)

Test: Chemical stability study of the stable form of Erlotinib hydrochloride (description, HPLC impurities, moisture content, assay on storage)
Type: physicochemical
Details: for Imp-1 (%) (N-(3-Ethynylphenyl)-6-(2-chloroethoxy)-7-(2-methoxyethoxy)-quinazolin-4-amine hydrochloride) / Imp-2 (%) (N-(3-Ethynylphenyl)-7-(2-chloroethoxy)-6-(2-methoxyethoxy)-quinazolin-4-amine hydrochloride): limit 0.15 w/w; for m/c (%): limit 0.5 w/w; for Assay (%), OAB: limit 98.0-102 w/w; for Description: limit White to off white; for HPLC single maximum impurity content / HPLC total impurity content / water content: storage condition not stated
Method: (Refrigerator), 25° C.±2° C.[…], 30° C.±2° C./65%±5% RH (Real Time) and 40° C.±2° C./75%±5% RH of Erlotinib Hydrochloride
Differential Scanning Calorimetry (DSC): Melting points are determined by means of a DSC thermogram using a Pyris-1 make Perkin Elmer. DSC (Differential Scanning Calorimetry) is the technique of dynamic differential Calorimetry. Using this technique, the melting temperature can be measured by heating the sample until a thermal, i.e. an endothermic or exothermic, reaction is detected by means of ultrasensitive sensors. The DSC cell/sample chamber was purged with 100 ml/min of ultra-high purity nitrogen. The instrument was calibrated with high purity Indium. The sample was placed into an open aluminum DSC pan and measured against an empty reference pan. About 2 mg of sample being placed into the bottom of the pan and lightly tapped down to ensure good contact with the pan. The instrument was programmed to heat at a heating rate of 10° C./min in the temperature range between 50° C. and 300° C. • Microscope: A Lieca Microscope with Linkam Hot stage microscopy (TMS-94) system with polarized light, CCD camera and Linksys 32 data software. • HPLC: High Performance Liquid Chromatography Separation Module with PDA detector, Make Waters, Model No 2695. • KF: Moisture content was analyzed by using Karl Fisher Autotitrator 795 KFT Titrino make Metrohm.

[1] = 5° C. ± 3° C. (Refrigerator), Month 1
[2] = 5° C. ± 3° C. (Refrigerator), Month 2
[3] = 5° C. ± 3° C. (Refrigerator), Month 3
[4] = 5° C. ± 3° C. (Refrigerator), Month 6
[5] = 25° C. ± 2° C./60% ± 5% RH, Month 1
[6] = 25° C. ± 2° C./60% ± 5% RH, Month 2
[7] = 25° C. ± 2° C./60% ± 5% RH, Month 3
[8] = 25° C. ± 2° C./60% ± 5% RH, Month 6
[9] = 30° C. ± 2° C./65% ± 5% RH (Real Time), Month 1
[10] = 30° C. ± 2° C./65% ± 5% RH (Real Time), Month 2
[11] = 30° C. ± 2° C./65% ± 5% RH (Real Time), Month 3
[12] = 30° C. ± 2° C./65% ± 5% RH (Real Time), Month 6
[13] = 40° C. ± 2° C./75% ± 5% RH, Month 1
[14] = 40° C. ± 2° C./75% ± 5% RH, Month 2
[15] = 40° C. ± 2° C./75% ± 5% RH, Month 3
[16] = 40° C. ± 2° C./75% ± 5% RH, Month 6

- period over which stable with all impurities in limit (5° C. to 40° C./75% RH storage conditions of the chemical stability table): ≥ 6 months
- Total Imp [1]: 0.12 % w/w
- Imp-1 (%) (N-(3-Ethynylphenyl)-6-(2-chloroethoxy)-7-(2-methoxyethoxy)-quinazolin-4-amine hydrochloride) [1]: 0.05%
- Imp-2 (%) (N-(3-Ethynylphenyl)-7-(2-chloroethoxy)-6-(2-methoxyethoxy)-quinazolin-4-amine hydrochloride) [1]: 0.07%
- m/c (%) [1]: 0.16%
- Assay (%), OAB [1]: 99.5%
- Description [1]: Complies
- Total Imp [2]: 0.13 % w/w
- Imp-1 (%) (N-(3-Ethynylphenyl)-6-(2-chloroethoxy)-7-(2-methoxyethoxy)-quinazolin-4-amine hydrochloride) [2]: 0.05%
- Imp-2 (%) (N-(3-Ethynylphenyl)-7-(2-chloroethoxy)-6-(2-methoxyethoxy)-quinazolin-4-amine hydrochloride) [2]: 0.08%
- m/c (%) [2]: 0.15%
- Assay (%), OAB [2]: 99.6%
- Description [2]: Complies
- Total Imp [3]: 0.13 % w/w
- Imp-1 (%) (N-(3-Ethynylphenyl)-6-(2-chloroethoxy)-7-(2-methoxyethoxy)-quinazolin-4-amine hydrochloride) [3]: 0.05%
- Imp-2 (%) (N-(3-Ethynylphenyl)-7-(2-chloroethoxy)-6-(2-methoxyethoxy)-quinazolin-4-amine hydrochloride) [3]: 0.08%
- m/c (%) [3]: 0.15%
- Assay (%), OAB [3]: 99.5%
- Description [3]: Complies
- Total Imp [4]: 0.14 % w/w
- Imp-1 (%) (N-(3-Ethynylphenyl)-6-(2-chloroethoxy)-7-(2-methoxyethoxy)-quinazolin-4-amine hydrochloride) [4]: 0.06%
- Imp-2 (%) (N-(3-Ethynylphenyl)-7-(2-chloroethoxy)-6-(2-methoxyethoxy)-quinazolin-4-amine hydrochloride) [4]: 0.08%
- m/c (%) [4]: 0.15%
- Assay (%), OAB [4]: 99.8%
- Description [4]: Complies
- Total Imp [5]: 0.13 % w/w
- Imp-1 (%) (N-(3-Ethynylphenyl)-6-(2-chloroethoxy)-7-(2-methoxyethoxy)-quinazolin-4-amine hydrochloride) [5]: 0.05%
- Imp-2 (%) (N-(3-Ethynylphenyl)-7-(2-chloroethoxy)-6-(2-methoxyethoxy)-quinazolin-4-amine hydrochloride) [5]: 0.08%
- m/c (%) [5]: 0.14%
- Assay (%), OAB [5]: 99.9%
- Description [5]: Complies
- Total Imp [6]: 0.13 % w/w
- Imp-1 (%) (N-(3-Ethynylphenyl)-6-(2-chloroethoxy)-7-(2-methoxyethoxy)-quinazolin-4-amine hydrochloride) [6]: 0.05%
- Imp-2 (%) (N-(3-Ethynylphenyl)-7-(2-chloroethoxy)-6-(2-methoxyethoxy)-quinazolin-4-amine hydrochloride) [6]: 0.08%
- m/c (%) [6]: 0.13%
- Assay (%), OAB [6]: 99.2%
- Description [6]: Complies
- Total Imp [7]: 0.13 % w/w
- Imp-1 (%) (N-(3-Ethynylphenyl)-6-(2-chloroethoxy)-7-(2-methoxyethoxy)-quinazolin-4-amine hydrochloride) [7]: 0.05%
- Imp-2 (%) (N-(3-Ethynylphenyl)-7-(2-chloroethoxy)-6-(2-methoxyethoxy)-quinazolin-4-amine hydrochloride) [7]: 0.08%
- m/c (%) [7]: 0.14%
- Assay (%), OAB [7]: 99.3%
- Description [7]: Complies
- Total Imp [8]: 0.13 % w/w
- Imp-1 (%) (N-(3-Ethynylphenyl)-6-(2-chloroethoxy)-7-(2-methoxyethoxy)-quinazolin-4-amine hydrochloride) [8]: 0.05%
- Imp-2 (%) (N-(3-Ethynylphenyl)-7-(2-chloroethoxy)-6-(2-methoxyethoxy)-quinazolin-4-amine hydrochloride) [8]: 0.08%
- m/c (%) [8]: 0.14%
- Assay (%), OAB [8]: 99.9%
- Description [8]: Complies
- Total Imp [9]: 0.14 % w/w
- Imp-1 (%) (N-(3-Ethynylphenyl)-6-(2-chloroethoxy)-7-(2-methoxyethoxy)-quinazolin-4-amine hydrochloride) [9]: 0.06%
- Imp-2 (%) (N-(3-Ethynylphenyl)-7-(2-chloroethoxy)-6-(2-methoxyethoxy)-quinazolin-4-amine hydrochloride) [9]: 0.08%
- m/c (%) [9]: 0.12%
- Assay (%), OAB [9]: 99.6%
- Description [9]: Complies
- Total Imp [10]: 0.13 % w/w
- Imp-1 (%) (N-(3-Ethynylphenyl)-6-(2-chloroethoxy)-7-(2-methoxyethoxy)-quinazolin-4-amine hydrochloride) [10]: 0.05%
- Imp-2 (%) (N-(3-Ethynylphenyl)-7-(2-chloroethoxy)-6-(2-methoxyethoxy)-quinazolin-4-amine hydrochloride) [10]: 0.08%
- m/c (%) [10]: 0.15%
- Assay (%), OAB [10]: 99.4%
- Description [10]: Complies
- Total Imp [11]: 0.13 % w/w
- Imp-1 (%) (N-(3-Ethynylphenyl)-6-(2-chloroethoxy)-7-(2-methoxyethoxy)-quinazolin-4-amine hydrochloride) [11]: 0.05%
- Imp-2 (%) (N-(3-Ethynylphenyl)-7-(2-chloroethoxy)-6-(2-methoxyethoxy)-quinazolin-4-amine hydrochloride) [11]: 0.08%
- m/c (%) [11]: 0.15%
- Assay (%), OAB [11]: 99.4%
- Description [11]: Complies
- Total Imp [12]: 0.14 % w/w
- Imp-1 (%) (N-(3-Ethynylphenyl)-6-(2-chloroethoxy)-7-(2-methoxyethoxy)-quinazolin-4-amine hydrochloride) [12]: 0.06%
- Imp-2 (%) (N-(3-Ethynylphenyl)-7-(2-chloroethoxy)-6-(2-methoxyethoxy)-quinazolin-4-amine hydrochloride) [12]: 0.08%
- m/c (%) [12]: 0.14%
- Assay (%), OAB [12]: 99.8%
- Description [12]: Complies
- Total Imp [13]: 0.14 % w/w
- Imp-1 (%) (N-(3-Ethynylphenyl)-6-(2-chloroethoxy)-7-(2-methoxyethoxy)-quinazolin-4-amine hydrochloride) [13]: 0.06%
- Imp-2 (%) (N-(3-Ethynylphenyl)-7-(2-chloroethoxy)-6-(2-methoxyethoxy)-quinazolin-4-amine hydrochloride) [13]: 0.08%
- m/c (%) [13]: 0.15%
- Assay (%), OAB [13]: 99.3%
- Description [13]: Complies
- Total Imp [14]: 0.13 % w/w
- Imp-1 (%) (N-(3-Ethynylphenyl)-6-(2-chloroethoxy)-7-(2-methoxyethoxy)-quinazolin-4-amine hydrochloride) [14]: 0.05%
- Imp-2 (%) (N-(3-Ethynylphenyl)-7-(2-chloroethoxy)-6-(2-methoxyethoxy)-quinazolin-4-amine hydrochloride) [14]: 0.08%
- m/c (%) [14]: 0.16%
- Assay (%), OAB [14]: 99.5%
- Description [14]: Complies
- Total Imp [15]: 0.13 % w/w
- Imp-1 (%) (N-(3-Ethynylphenyl)-6-(2-chloroethoxy)-7-(2-methoxyethoxy)-quinazolin-4-amine hydrochloride) [15]: 0.05%
- Imp-2 (%) (N-(3-Ethynylphenyl)-7-(2-chloroethoxy)-6-(2-methoxyethoxy)-quinazolin-4-amine hydrochloride) [15]: 0.08%
- m/c (%) [15]: 0.16%
- Assay (%), OAB [15]: 99.9%
- Description [15]: Complies
- Total Imp [16]: 0.14 % w/w
- Imp-1 (%) (N-(3-Ethynylphenyl)-6-(2-chloroethoxy)-7-(2-methoxyethoxy)-quinazolin-4-amine hydrochloride) [16]: 0.06%
- Imp-2 (%) (N-(3-Ethynylphenyl)-7-(2-chloroethoxy)-6-(2-methoxyethoxy)-quinazolin-4-amine hydrochloride) [16]: 0.08%
- m/c (%) [16]: 0.17%
- Assay (%), OAB [16]: 99.4%
- Description [16]: Complies
- HPLC single maximum impurity content (Initial): 0.08 % w/w
- HPLC total impurity content (Initial): 0.13 % w/w
- water content (Initial): 0.14 % w/w
- HPLC single maximum impurity content (after 3 months): 0.08 % w/w
- HPLC total impurity content (after 3 months): 0.13 % w/w
- water content (after 3 months): 0.14 % w/w
- HPLC single maximum impurity content (after 6 months): 0.08 % w/w
- HPLC total impurity content (after 6 months): 0.13 % w/w
- water content (after 6 months): 0.14 % w/w
Compound: C#Cc1cccc(Nc2ncnc3cc(OCCOC)c(OCCOC)cc23)c1.Cl [Erlotinib hydrochloride, 4-(3-Ethynylphenylamino)-6,7-bis(2-methoxyethoxy)-quinazoline]
